Laboratory results as given in patent publication US10150743B2, “Carboxylic acid compounds” (priority 2012, dated 2018).

Key:
Renca mouse tumour cells = assay: Tumour growth studies in Renca, a murine syngeneic renal carcinoma tumour model; format: in vivo; settings: Balb/C mice, 0.3 mg/kg once a week p.o. on days 1, 8, 15; vs 0.5% methylcellulose; FIG. 9
Method: Experiments were conducted on female mice (Balb/C genotype, at least 5 weeks old). Renca mouse tumour cells (Cancer Chemother Pharmacol. 1995; 36 (1): 7-12) were kindly provided by Dr. T. Fujioka at Department of Urology, Iwate Medical University School of Medicine. Renca mouse tumour cells (5×10^4) were implanted subcutaneously in the flank of mice on day 0. Mice were treated with either drug vehicle (0.5% methylcellulose), the compound of Example 3 (0.3 mg/kg once a week) or the compound of Example 4 (3 mg/kg once a week) administered orally (p. o.) on days 1, 8, and 15. Tumour volumes were assessed at least twice weekly by bilateral vernier caliper measurements.
Tumour growth inhibition from the start of treatment was assessed by comparison of the differences in tumour growth rate between control and the compound of Example 3 treated groups, as shown in FIG. 9.
Tumour growth inhibition from the start of treatment was assessed by comparison of the differences in tumour growth rate between control and the compound of the Example 4 treated groups, as shown in FIG. 10.

human TLR7 = human TLR7 (Homo sapiens (Human), UniProt Q9NYK1); assay: Human TLR7 assay (SEAP reporter in HEK293); format: cell-based; settings: SEAP induction, overnight incubation at 37° C., 0.1% DMSO; read-out: TLR7 (pEC50) (converted)
Chain of human TLR7 (Q9NYK1 27-1049): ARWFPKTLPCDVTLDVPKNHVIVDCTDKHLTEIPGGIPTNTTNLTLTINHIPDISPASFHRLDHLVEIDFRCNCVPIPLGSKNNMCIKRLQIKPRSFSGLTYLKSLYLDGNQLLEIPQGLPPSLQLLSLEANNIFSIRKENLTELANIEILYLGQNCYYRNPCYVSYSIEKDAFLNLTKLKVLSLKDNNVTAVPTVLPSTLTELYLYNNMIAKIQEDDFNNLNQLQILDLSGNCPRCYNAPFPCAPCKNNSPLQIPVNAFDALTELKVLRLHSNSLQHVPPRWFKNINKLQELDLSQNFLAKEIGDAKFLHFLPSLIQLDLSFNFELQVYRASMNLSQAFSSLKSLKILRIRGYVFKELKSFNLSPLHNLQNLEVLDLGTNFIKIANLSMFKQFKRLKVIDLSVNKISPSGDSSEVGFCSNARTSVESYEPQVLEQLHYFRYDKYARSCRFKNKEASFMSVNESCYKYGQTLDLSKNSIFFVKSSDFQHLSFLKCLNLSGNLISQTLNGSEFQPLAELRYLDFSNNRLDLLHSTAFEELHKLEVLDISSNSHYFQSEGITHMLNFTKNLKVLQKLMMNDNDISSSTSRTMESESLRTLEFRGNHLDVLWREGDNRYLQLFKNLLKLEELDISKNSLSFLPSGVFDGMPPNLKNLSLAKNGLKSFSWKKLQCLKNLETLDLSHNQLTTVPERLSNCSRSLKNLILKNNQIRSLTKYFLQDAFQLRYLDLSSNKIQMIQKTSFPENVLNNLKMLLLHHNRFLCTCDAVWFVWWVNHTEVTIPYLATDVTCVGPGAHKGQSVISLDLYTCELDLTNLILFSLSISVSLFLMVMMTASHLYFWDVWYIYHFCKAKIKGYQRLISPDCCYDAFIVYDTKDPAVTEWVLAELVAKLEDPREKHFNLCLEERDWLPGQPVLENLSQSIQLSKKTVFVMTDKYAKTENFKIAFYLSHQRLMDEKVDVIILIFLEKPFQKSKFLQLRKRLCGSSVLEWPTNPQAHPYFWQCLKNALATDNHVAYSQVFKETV
Excerpt: Recombinant human TLR7 was stably expressed in a HEK293 cell line already stably expressing the pNiFty2-SEAP reporter plasmid; integration of the reporter gene was maintained by selection with the antibiotic zeocin. The most common variant sequence of human TLR7 (represented by the EMBL sequence AF240467) was cloned into the mammalian cell expression vector pUNO and transfected into this reporter cell-line. Transfectants with stable expression were selected using the antibiotic blasticidin. In this reporter cell-line, expression of secreted alkaline phosphatase (SEAP) is controlled by an NFkB/ELAM-1 composite promoter comprising five NFkB sites combined with the proximal ELAM-1 promoter. TLR signaling leads to the translocation of NFkB and activation of the promoter results in expression of the SEAP gene. TLR7-specific activation was assessed by determining the level of SEAP produced following overnight incubation of the cells at 37° C. with the standard compound in the presence of 0.1% (v/v) dimethylsulfoxide (DMSO). Concentration dependent induction of SEAP production by compounds was expressed as the concentration of compound which produced half of the maximal level of SEAP induction for that compound (EC50).

hERG potassium channel = hERG potassium channel (Homo sapiens (Human), UniProt Q12809); assay: hERG Analysis - Method 2 (QPATCH HT, CHO-hERG cells); format: cell-based; settings: half-maximal inhibition concentration, 22±2° C.
Chain of hERG potassium channel (Q12809 whole entry): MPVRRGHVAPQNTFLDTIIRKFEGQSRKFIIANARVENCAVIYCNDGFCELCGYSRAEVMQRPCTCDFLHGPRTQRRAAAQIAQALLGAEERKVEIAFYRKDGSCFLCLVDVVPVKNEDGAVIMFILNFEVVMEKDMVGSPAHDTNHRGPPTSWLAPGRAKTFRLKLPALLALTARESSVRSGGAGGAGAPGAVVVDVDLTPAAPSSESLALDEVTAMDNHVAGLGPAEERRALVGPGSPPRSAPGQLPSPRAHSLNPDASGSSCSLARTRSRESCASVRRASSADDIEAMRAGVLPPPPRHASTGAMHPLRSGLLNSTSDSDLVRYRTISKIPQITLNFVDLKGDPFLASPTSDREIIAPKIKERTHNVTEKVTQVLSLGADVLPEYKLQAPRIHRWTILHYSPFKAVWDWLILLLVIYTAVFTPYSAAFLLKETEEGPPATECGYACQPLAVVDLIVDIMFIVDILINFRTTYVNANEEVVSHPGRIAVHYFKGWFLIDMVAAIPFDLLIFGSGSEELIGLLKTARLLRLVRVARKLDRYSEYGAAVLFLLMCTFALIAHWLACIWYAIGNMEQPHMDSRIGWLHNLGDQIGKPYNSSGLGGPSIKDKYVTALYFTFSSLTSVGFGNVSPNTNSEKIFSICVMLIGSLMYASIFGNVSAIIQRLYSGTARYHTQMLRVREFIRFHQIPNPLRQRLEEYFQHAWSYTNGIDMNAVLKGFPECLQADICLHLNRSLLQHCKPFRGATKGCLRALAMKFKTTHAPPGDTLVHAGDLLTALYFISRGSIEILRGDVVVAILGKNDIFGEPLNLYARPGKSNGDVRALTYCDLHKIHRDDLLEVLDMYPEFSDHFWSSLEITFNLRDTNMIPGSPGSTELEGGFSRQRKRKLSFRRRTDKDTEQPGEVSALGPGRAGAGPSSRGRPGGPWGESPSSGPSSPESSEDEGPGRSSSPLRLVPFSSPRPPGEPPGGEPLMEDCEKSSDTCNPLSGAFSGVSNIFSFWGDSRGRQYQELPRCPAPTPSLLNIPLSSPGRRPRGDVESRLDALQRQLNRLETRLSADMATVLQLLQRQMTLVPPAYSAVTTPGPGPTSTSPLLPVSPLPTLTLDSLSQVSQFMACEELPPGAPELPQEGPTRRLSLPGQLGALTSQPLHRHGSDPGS
Method: The hERG potassium current was measured in a hERG-stably-expressing Chinese hamster ovary K1 (CHO) cells. The experiments were performed using an automated planar patch-clamp system QPATCH HT (Sophion Bioscience A/S). The application of pressure for forming gigaseals and whole-cell patch clamp configuration were established using the QPATCH assay software. Patch-clamp experiments were performed in voltage-clamp mode and whole-cell currents were recorded from individual cells. The following stimulation protocol was applied to investigate the effects of compounds on hERG potassium channel: The membrane potential was held at −80 mV and repetitively (every 15 s) depolarized to +20 mV for 5 s after the pulse to −50 mV for 20 ms served to define the baseline, followed by repolarizing step to −50 mV for 5 s to evaluate of the tail current amplitude. Experiments were conducted at room temperature (22±2° C.).
Effects of compounds were determined from cumulative applications of increasing 4 concentrations and calculated as percent of blocked current. The data points were fitted with Hill equation to calculate half-maximal inhibition concentrations. The test solution includes: Extracellular solution (mM): 2 mM of CaCl2, 1 mM of MgCl2, 10 mM of HEPES, 4 mM of KCl, 145 mM of NaCl, and 10 mM of Glucose; and Intracellular solution (mM): 5.4 mM of CaCl2, 1.8 mM of MgCl2, 10 mM of HEPES, 31 mM of KOH, 10 mM of EGTA, 120 mM of KCl, and 4 mM of ATP.

CCC[C@@H](CCO)Nc1nc(N)nc(C)c1Cc1ccc(CN(CC(=O)O)CC(F)F)cc1OC [Example 3, (S)-2-((4-((2-amino-4-(1-hydroxyhexan-3-ylamino)-6-methylpyrimidin-5-yl)methyl)-3-methoxybenzyl)(2,2-difluoroethyl)amino)acetic acid]
Tumour growth inhibition (Renca mouse tumour cells): inhibited tumour growth | EC50 (human TLR7): 0.0794 µM | IC50 (hERG potassium channel): > 10 µM
